Where two headings read alike, the source gives them in different places.
Assays:
human mGluR5a receptor = human mGluR5a receptor (Homo sapiens, UniProt P41594); test: Cell-based functional assay (Ca2+ mobilization, FDSS) for positive allosteric modulation of mGluR5; settings: for EC50: potentiation in presence of EC20 glutamate; for Emax: maximum % effect in concentration-response curve, as percent of response to maximally effective glutamate concentration
Method: The mGluR5 activity was determined using the metabotropic glutamate receptor activity assays in human embryonic kidney cells as described herein, wherein the human embryonic kidney cells were transfected with human mGluR5. The compounds in Table I were synthesized with methods identical or analogous to those shown herein. The Synthetic Route Reference indicated in Table I refers to the Reaction Scheme number described above. The requisite starting materials were commercially available, described in the literature, or readily synthesized by one skilled in the art of organic synthesis.
Human mGluR5a cDNA in pCMV6-XL6 mammalian expression plasmid was purchased from OriGene Technologies, Inc. (catalogue number SC326357) and subcloned into pcDNA3.1(−). […] Monoclones were named for the species (“H” for human) plus the location on the plate (e.g. “10H”).
HEK cells transfected with the human mGluR5a receptor (H10H or H12H cell line) were plated at 15,000 cells/well in clear-bottomed poly-D-lysine-coated assay plates (BD Falcon) in glutamate-glutamine-free growth medium and incubated overnight at 37° C. and 5% CO2. Cell-lines used were either the H10H or H12H cell-lines expressing the human mGluR5 receptor. The following day, the growth medium was removed and the cells were washed with assay buffer containing 1× Hank's balanced salt solution (Invitrogen, Carlsbad, Calif.), 20 mM HEPES, 2.5 mM probenecid, pH 7.4 and left with 20 μL of this reagent. Following this step, the cells were loaded with calcium indicator dye, fluo-4 AM, to a final concentration of 2 μM and incubated for 40-45 min at 37° C. The dye solution was removed and replaced with assay buffer. Cell plates were held for 10-15 min at room temperature and were then loaded into the Functional Drug Screening System 6000 (FDSS 6000, Hamamatsu, Japan).
After establishment of a fluorescence baseline for about 3 seconds, the compounds of the present invention were added to the cells, and the response in cells was measured. 2.3 minutes later an EC20 concentration of the mGluR5 receptor agonist glutamate was added to the cells, and the response of the cells was measured for about 1.7 minutes. All test compounds were dissolved and diluted to a concentration of 10 mM in 100% DMSO and then serially diluted into assay buffer for a 2× stock solution in 0.6% DMSO; stock compounds were then added to the assay for a final DMSO concentration of 0.3% after the first addition to the assay well. Calcium fluorescence measures were recorded as fold over basal fluorescence; raw data was then normalized to the maximal response to glutamate.
The concentration-response curves of compounds of the present invention, obtained in the presence of EC20 of mGluR5 receptor agonist glutamate to determine positive allosteric modulation, were generated using Microsoft Excel with IDBS XLfit add-ins. The raw data file containing all time points was used as the data source in the analysis template. This was saved by the FDSS as a tab-delimitted text file. Data were normalized using a static ratio function (F/F0) for each measurement of the total 350 values per well divided by each well's initial value. Data was then reduced as to peak amplitudes (Max—Initial Min) using a time range that starts approximately 1 second after the glutamate EC20 addition and continues for approximately 40 seconds. This is sufficient time to capture the peak amplitude of the cellular Calcium response. Individual amplitudes were expressed as % EMax by multiplying each amplitude by 100 and then dividing the product by the mean of the amplitudes derived from the glutamate ECMax-treated wells. pEC50 values for test compounds were generated by fitting the normalized values versus the log of the test compound concentration (in mol/L) using a 4 parameter logistic equation where none of the parameters were fixed.

[1] = HEK cells transfected with human mGluR5a (H10H or H12H), read-out: EC50
[2] = HEK cells transfected with human mGluR5a (H10H or H12H), concentration in mol/L, read-out: pEC50 (converted)
[3] = EC50 (nM), HEK cells transfected with human mGluR5a (H10H or H12H)

Chain of human mGluR5a receptor (P41594 21-1180 isoform P41594-2 limits assumed): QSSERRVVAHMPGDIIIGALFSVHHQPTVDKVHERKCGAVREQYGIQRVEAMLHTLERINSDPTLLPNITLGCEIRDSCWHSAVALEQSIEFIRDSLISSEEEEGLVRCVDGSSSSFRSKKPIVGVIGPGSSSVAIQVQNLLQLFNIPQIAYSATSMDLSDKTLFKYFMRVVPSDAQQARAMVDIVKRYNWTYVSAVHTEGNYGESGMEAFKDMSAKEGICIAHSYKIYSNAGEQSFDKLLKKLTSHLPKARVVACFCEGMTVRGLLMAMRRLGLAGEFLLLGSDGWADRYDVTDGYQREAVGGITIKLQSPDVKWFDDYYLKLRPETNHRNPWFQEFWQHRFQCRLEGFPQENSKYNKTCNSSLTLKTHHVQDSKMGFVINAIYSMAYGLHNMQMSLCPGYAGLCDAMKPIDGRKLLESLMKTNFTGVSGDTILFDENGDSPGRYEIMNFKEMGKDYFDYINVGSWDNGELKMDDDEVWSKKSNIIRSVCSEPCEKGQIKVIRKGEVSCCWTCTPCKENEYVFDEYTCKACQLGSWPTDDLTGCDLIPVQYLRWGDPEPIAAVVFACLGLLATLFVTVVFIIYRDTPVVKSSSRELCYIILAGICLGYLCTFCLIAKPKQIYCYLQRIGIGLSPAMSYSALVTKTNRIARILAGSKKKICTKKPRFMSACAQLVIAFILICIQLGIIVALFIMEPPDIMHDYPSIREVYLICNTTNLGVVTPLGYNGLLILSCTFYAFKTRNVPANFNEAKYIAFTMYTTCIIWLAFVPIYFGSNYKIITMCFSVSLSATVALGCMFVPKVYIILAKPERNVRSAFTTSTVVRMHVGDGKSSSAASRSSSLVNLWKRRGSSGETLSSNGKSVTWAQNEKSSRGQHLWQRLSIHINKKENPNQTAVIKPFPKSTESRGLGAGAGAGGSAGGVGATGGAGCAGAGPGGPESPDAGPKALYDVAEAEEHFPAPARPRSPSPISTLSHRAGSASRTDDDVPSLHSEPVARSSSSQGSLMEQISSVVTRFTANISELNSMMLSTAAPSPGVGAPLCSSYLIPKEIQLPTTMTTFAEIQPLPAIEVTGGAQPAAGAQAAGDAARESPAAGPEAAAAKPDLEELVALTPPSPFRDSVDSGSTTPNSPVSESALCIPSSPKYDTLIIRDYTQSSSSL

Q: For `Cc1nc(-n2ccc3nc(COc4ccccc4)cn3c2=O)ccc1F` [compound 10], which EC50 (human mGluR5a receptor; [1]) is on record?
A: 292 nM

Q: And the Emax (human mGluR5a receptor)?
A: 70%

Q: What about the melting point of the same compound?
A: 199.5 °C

Q: With `O=c1n(-c2cccc(C(F)(F)F)c2)ccc2nc(COc3ccc(Cl)cc3)cn12` [compound 21] as the compound, how does the EC50 (human mGluR5a receptor; [1]) read?
A: > 10000 nM

Q: And the melting point?
A: 141.8 °C

Q: With `O=c1n(-c2cccc(C(F)(F)F)c2)ccc2nc(COc3ccc(F)cc3)cn12` [compound 16] as the compound, how does the EC50 (human mGluR5a receptor; [2]) read?
A: 1170 nM

Q: And the EC50 (human mGluR5a receptor; [1])?
A: 1290 nM

Q: And the Emax (human mGluR5a receptor)?
A: 50%

Q: And the melting point?
A: > 300 °C

Q: Which EC50 (human mGluR5a receptor; [2]) does the source give for `O=c1n(-c2ccc(F)cc2)ccc2nc(COc3ccc(F)cc3)cn12` [compound 14] here?
A: 309 nM

Q: And the EC50 (human mGluR5a receptor; [1])?
A: 302 nM

Q: And the Emax (human mGluR5a receptor)?
A: 72%

Q: What about the melting point of the same compound?
A: 163.4 °C

Q: What does the source list for `CN(C)c1cccc(-n2ccc3nc(COc4ccccc4)cn3c2=O)n1` [compound 24]?
A: EC50 (human mGluR5a receptor; [2]): 209 nM; EC50 (human mGluR5a receptor; [1]): 201 nM; Emax (human mGluR5a receptor): 64%; melting point: 136 °C

Q: Which EC50 (human mGluR5a receptor; [2]) does the source give for `O=C1N(c2ccc(F)c(F)c2)CCc2nc(COc3ccccc3)cn21` [compound 33] here?
A: 102 nM

Q: What about the EC50 (human mGluR5a receptor; [1]) of the same compound?
A: 97 nM

Q: What about the Emax (human mGluR5a receptor) of the same compound?
A: 75%

Q: And the melting point?
A: 165.4 °C

Q: What does the source list for `Cc1ccnc(-n2ccc3nc(COc4ccccc4)cn3c2=O)c1` [compound 15]?
A: EC50 (human mGluR5a receptor; [2]): > 10000 nM; EC50 (human mGluR5a receptor; [1]): 8320 nM; Emax (human mGluR5a receptor): 51%; melting point: 239.4 °C

Q: With `O=c1n(-c2ccc(F)cc2)ccc2nc(COc3ccccn3)cn12` [compound 18] as the compound, how does the EC50 (human mGluR5a receptor; [2]) read?
A: 2140 nM

Q: What about the EC50 (human mGluR5a receptor; [1]) of the same compound?
A: 2510 nM

Q: What about the Emax (human mGluR5a receptor) of the same compound?
A: 66%

Q: And the melting point?
A: 282.3 °C

Q: What does the source list for `O=c1n(-c2cccc(F)c2)ccc2nc(COc3ccccc3)cn12` [compound 4]?
A: EC50 (human mGluR5a receptor; [3]): 525 nM; Emax (human mGluR5a receptor): 68%; EC50 (human mGluR5a receptor; pEC50, HEK cells transfected with human mGluR5a (H10H or H12H), concentration in mol/L): 513 nM; melting point: 123.4 °C

Q: Which results are given for `O=c1n(Cc2ccccc2)ccc2nc(COc3ccccc3)cn12` [compound 7]?
A: EC50 (human mGluR5a receptor; [1]): 1240 nM; Emax (human mGluR5a receptor): 80%; melting point: 122.3 °C

Q: What does the source list for `O=c1n(-c2ccc(F)cc2)ccc2nc(COc3ccccc3)cn12` [compound 3]?
A: EC50 (human mGluR5a receptor; [2]): 269 nM; EC50 (human mGluR5a receptor; [1]): 392 nM; Emax (human mGluR5a receptor): 79%; melting point: 142.3 °C

Q: With `Cc1cc2nc(COc3ccccc3)cn2c(=O)n1-c1ccc(F)cc1` [compound 28] as the compound, how does the EC50 (human mGluR5a receptor; [2]) read?
A: 1480 nM

Q: And the EC50 (human mGluR5a receptor; [1])?
A: 1860 nM

Q: What about the Emax (human mGluR5a receptor) of the same compound?
A: 49%

Q: And the melting point?
A: 143.6 °C

Q: What does the source list for `Cc1cccc(-n2ccc3nc(COc4ccccc4)cn3c2=O)n1` [compound 8]?
A: EC50 (human mGluR5a receptor; [2]): 2190 nM; EC50 (human mGluR5a receptor; [1]): 2290 nM; Emax (human mGluR5a receptor): 43%; melting point: > 300 °C

Q: With `Cc1ccc(-n2ccc3nc(COc4ccccc4)cn3c2=O)nc1` [compound 11] as the compound, how does the EC50 (human mGluR5a receptor; [2]) read?
A: 1150 nM

Q: What about the EC50 (human mGluR5a receptor; [1]) of the same compound?
A: 1320 nM

Q: And the Emax (human mGluR5a receptor)?
A: 59%

Q: And the melting point?
A: 209.4 °C

Q: For `O=c1n(-c2ccc(F)cc2)ccc2nc(COc3cccnc3)cn12` [compound 19], which EC50 (human mGluR5a receptor; [1]) is on record?
A: > 30200 nM

Q: And the Emax (human mGluR5a receptor)?
A: 59%

Q: What about the melting point of the same compound?
A: > 300 °C

Q: Which results are given for `N#Cc1cccc(OCc2cn3c(=O)n(-c4ccc(F)cc4)ccc3n2)c1` [compound 13]?
A: EC50 (human mGluR5a receptor; [1]): 350 nM; Emax (human mGluR5a receptor): 40%; melting point: 165 °C

Q: Which EC50 (human mGluR5a receptor; [3]) does the source give for `O=C1N(c2cccc(F)c2)CCc2nc(COc3ccccc3)cn21` [compound 32] here?
A: 226 nM

Q: What about the EC50 (human mGluR5a receptor; [2]) of the same compound?
A: 245 nM

Q: What about the Emax (human mGluR5a receptor) of the same compound?
A: 70%

Q: And the melting point?
A: > 300 °C

Q: Which results are given for `Cc1cccc(OCc2cn3c(=O)n(-c4ccc(F)cc4)ccc3n2)c1` [compound 12]?
A: EC50 (human mGluR5a receptor; [2]): 513 nM; EC50 (human mGluR5a receptor; [1]): 468 nM; Emax (human mGluR5a receptor): 33%
